In one assay the test system is NMDA-activated currents. In words: Electrophysiological characterisation of NMDA-activated currents in freshly isolated hippocampal neurones (whole-cell patch clamp). The note with it: for % Inhibition Peak Current / % Inhibition Steady State Current: 1 μM substance, 10 μM glycine, 300 μM L-aspartate, holding potential −70 mV, mean of at least 4 cells; for blocking activity on NMDA-activated currents (in words): summary of Table 3, 1 μM. It counts as cell-based, Wistar rats. Here is the method:
Isolation of hippocampal neurons: Wistar rats (12-14 days) were decapitated without anesthesia and the hippocampus was removed. It was manually cut into slices (0.2-0.4 mm), in a solution containing (mM): 150 NaCl; 5 KCL; 1.25 NaH2PO4; 2 CaCl2; 2 MgCl2; 26 NaHCO3; 20 glucose. Slices were preincubated in this solution for 30 min at room temperature. The enzymatic treatment proceeded in the same solution with lower Ca^2+ concentration (0.5 mm) containing 0.4 mg/ml protease from aspergillus oryzae. The incubation in the enzyme solution proceeded at 32° C. within 10 min. Slices were kept subsequently in enzyme-free solution containing normal Ca^2±concentration and used within 6-8 h for obtaining isolated neurons. Throughout the entire procedure the solutions were continuously saturated with a 95% O2 and 5% CO2 gas mixture to maintain pH of 7.4. For cell dissociation the slice was transferred into the extracellular solution containing (mM): 150 NaCl; 5 KCl; 2 CaCl2; 10 n-2-hydroxyethylpiperazine-n′-2-ethanesulphonic acid (Hepes); pH adjusted with NaOH to 7.4. Single cells were isolated from CA and CA3 zones of hippocampal slices by vibrodissociation method. […] After isolation they were usually suitable for the recording for 1-2 h.
Salines and chemicals: The contents of the extracellular solution was as follows (in mM): 130 NaCl, 5KCl, 2CaCl2, 20 n-2-hydroxyethylpiperazine-n′-2-ethansulfonic acid (Hepes); 0.1 μm TTX, 10 μm glycine, […] 1-aspartate; pH was adjusted with NaOH to 7.4.
The contents of the intracellular solution were as follows (in mM): 110 CsF, 20 Tris-HCl (pH=7.2). L-aspartate and glycine solutions were prepared on the day of experiment.
The tested substances were dissolved in DMSO.
Current recording and data analysis: The drug-containing solutions were applied by the fast “concentration clamp” method using “jumping table” set-up. The currents were recorded with patch clamp technique in the whole-cell configuration. Recording of the currents was performed using EPC-7 L/M patch-clamp amplifier.
NMDA-activated currents: The currents were filtered at 3 kHz (three-pole active Bessel filter) digitally sampled at the rate 6000 μs per point for NMDA activated currents. NMDA-induced transmembrane currents were measured in the presence of 10 μM glycine and 300 μM L-aspartate in the control and test solutions. The currents were recorded at holding potential −70 mV.
Calculations: The inhibition of current at 1 μM of the substance was averaged at least for 4 cells. The effect of substance was measured as the mean ratio I/Io where I was the current under the action of substance and Io was the current in control conditions.

The target of a further assay is T1, GSK3β (Homo sapiens, UniProt P49841).
T1 construct: made in house; host or cells: insect Sf9 cells
T1 sequence (P49841 whole entry, species assumed): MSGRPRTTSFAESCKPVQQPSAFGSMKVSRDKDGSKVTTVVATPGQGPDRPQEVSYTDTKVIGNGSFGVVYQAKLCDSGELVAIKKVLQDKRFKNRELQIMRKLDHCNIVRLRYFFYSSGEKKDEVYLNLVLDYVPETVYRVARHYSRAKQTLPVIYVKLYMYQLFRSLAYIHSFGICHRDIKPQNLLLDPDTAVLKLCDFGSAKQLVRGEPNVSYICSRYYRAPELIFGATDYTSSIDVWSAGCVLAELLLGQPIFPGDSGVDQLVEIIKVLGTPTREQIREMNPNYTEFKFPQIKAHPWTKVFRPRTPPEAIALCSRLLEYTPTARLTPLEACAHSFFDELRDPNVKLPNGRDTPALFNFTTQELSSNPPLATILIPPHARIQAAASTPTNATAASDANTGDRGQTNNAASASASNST
The assay can be described thus: Evaluation of GSK3β activity: inhibition of purified GSK3β, [γ-32P]ATP / GS-2 peptide filter assay. Conditions: for IC50: purified GSK3β expressed in Sf9 cells, 15 μM ATP, GS-2 peptide substrate, 30 min at 30° C.; for inhibiting activity on GSK3β activity (in words): summary of Table 1. Type of assay: biochemical. Here is the method: Compounds were evaluated for inhibition against purified GSK3β. GSK3β was expressed in and purified from insect Sf9 cells. Compounds (10 μM) were assayed; following a 1/100 dilution of the enzyme in 1 mg/ml BSA, 10 mM DTT, with 5 μl of 40 μM GS-2 peptide as a substrate, in a buffer, in the presence of 15 μM [γ-^32P]ATP (3000 Ci/mmol; 1 mCi/ml) in a final volume of 30 μl. After 30-min incubation at 30° C., 25-μl aliquots of supernatant were spotted onto 2.5×3 cm pieces of Whatman P81 phosphocellulose paper, and, 20 s later, the filters were washed five times (for at least 5 min each time) in a solution of 10 ml of phosphoric acid/liter of water. The wet filters were counted in the presence of 1 ml of scintillation fluid.

The subject of the next assay is MPTP-treated mice. The assay can be described thus: Anti-Parkinsonian activity in MPTP-treated mice with a sub threshold dose of L-DOPA (motor activity counts). It counts as in vivo, C57 BL/6 mice. Conditions: for LOCOMOTION / REARING / TOTAL ACTIVITY: MPTP-treated mice (2×40 mg/kg s.c.), compound 3 mg/kg orally + 5 mg/kg L-Dopa s.c., counts with Vehicle (no MPTP) = 100%; for reversal of the motor deficits of MPTP-treated mice (in words): 3 mg/kg, combined with a sub-threshold (inactive) dose of L-Dopa. Here is the method:
Animals: six month old male C57 BL/6 mice, weighing 22-25 g were used. Following arrival at the laboratory, the mice were allowed to acclimatize for two weeks in a room with controlled temperature (21±1° C.), and a constant light-dark schedule (12 hr on/12 hr off, lights on between 06.00 and 18.00 hrs). Free access to food and water was maintained throughout. They were housed in groups of 12 animals and tested only during the hours of light (08.00-15.00 hrs). All testing was performed in a normally lighted room.
Behavioural measurements and apparatus: An automated device, consisting of macrolon rodent test cages (40×25×15 cm), each placed within two series of infra-red beams (at two different heights, one low and one high, 2 and 8 cm, respectively, above the surface of the sawdust, 1 cm deep), was used to measure spontaneous and/or drug-induced motor activity of 1-methyl 4-phenyl 1,2,3,6-tetrahydropyridine (MPTP) and control mice. The following parameters were measured: LOCOMOTION was measured by the low grid of infrared beams. Counts were registered only when the mouse in the horizontal plane, ambulating around the test-cage. REARING was registered throughout the time when at least one high level beam was interrupted, i.e. the number of counts registered was proportional to the amount of time spent rearing. TOTAL ACTIVITY was measured by a sensor (a pick-up similar to a gramophone needle, mounted on a lever with a counterweight) with which the test cage was constantly in contact. The sensor registered all types of vibration received from the test cage, such as those produced both by locomotion and rearing as well as shaking, tremors, scratching and grooming.
Behavioral measurements (locomotion, rearing and total activity): Twelve days after MPTP injections (2×40 mg/kg, s.c., 24 hr interval), the mice were administered orally with the different compounds at 3 mg/kg or vehicle (0.1% Tween-80 in 1% methylcellulose) and immediately thereafter placed in the activity test chambers and their motor behaviors were monitored for 60 min. After 60 min, the mice were injected with 5 mg/kg L-Dopa (s.c) and then replaced in the test chamber and activity measurements maintained for an additional 300 min.
Table 2 presents the locomotion, rearing and total activity counts of MPTP-treated and control mice administered either tested substances or vehicle administered with a sub threshold dose of L-Dopa.

We go through 15 compounds from patent US8236858B2, “Substituted aryl-indole compounds and their kynurenine/kynuramine-like metabolites as therapeutic agents” (Neurim Pharmaceuticals (1991) Ltd., priority 2006, dated 2012).

The structures appear in SMILES notation.

For `Nc1ccccc1C(=O)CCNc1ccc([N+](=O)[O-])cc1Br` [2-(2-aminobenzoyl)-N-2-bromo-4-nitro-phenylethylamine], in the assay on NMDA-activated currents, the “% Inhibition Peak Current” value turned out to be 86.23% and the “% Inhibition Steady State Current” value came to 90.78%.
The matching figures for `Nc1ccccc1C(=O)CCNc1ccc(Br)cc1[N+](=O)[O-]` [2-(2-aminobenzoyl)-N-2-nitro-4-bromo-phenylethylamine]: 90.85% and 88.77%.
With `N#Cc1ccc(NCCC(=O)c2ccccc2N)c([N+](=O)[O-])c1` [2-(2-aminobenzoyl)-N-2-nitro-4-cyano-phenylethylamine], at GSK3β, it took 29.3 µM to reach half-maximal inhibition (IC50) and the “inhibiting activity on GSK3β activity (in words)” value (“inhibiting activity” for short) is “significant inhibiting activity”. In addition, in the assay with NMDA-activated currents, the “% Inhibition Peak Current” value was 85.95% and the “% Inhibition Steady State Current” value was found to be 87.24%. Besides, in the assay with MPTP-treated mice, the LOCOMOTION is on record as 17%, the REARING is recorded as 29% and the “TOTAL ACTIVITY” value turned out to be 46%.
As for `CS(=O)(=O)c1ccc(NCCC(=O)c2ccccc2N)c([N+](=O)[O-])c1` [2-(2-aminobenzoyl)-N-2-nitro-4-methylsulfonyl-phenylethylamine], in the assay with MPTP-treated mice, the “reversal of the motor deficits of MPTP-treated mice (in words)” value (“reversal” below) is “significantly reversed the motor deficits”, the LOCOMOTION amounted to 54%, the REARING is given as 100% and the “TOTAL ACTIVITY” value worked out at 72%.
In turn, `Nc1ccccc1C(=O)CCNc1ccccc1[N+](=O)[O-]` [2-(2-aminobenzoyl)-N-2-nitrophenylethylamine] registered an IC50 on GSK3β of 18.5 µM. For the same compound, in the assay with MPTP-treated mice, the LOCOMOTION stood at 17.6%, the REARING is reported as 25% and the “TOTAL ACTIVITY” value is 45%.
Turning to `COc1ccc2[nH]cc(CCNc3ccc([N+](=O)[O-])cc3C(=O)O)c2c1` [N-(2-Carboxy-4-nitrophenyl)-5-methoxytryptamine], in the assay on NMDA-activated currents, the “% Inhibition Peak Current” value is 84% and the “% Inhibition Steady State Current” value amounted to 93.6%.
`O=C(O)c1cc([N+](=O)[O-])ccc1NCCc1c[nH]c2ccccc12` [N-(2-Carboxy-4-nitrophenyl)-tryptamine]: at GSK3β, half-maximal inhibition (IC50) was put at 14.2 µM and the “inhibiting activity” value is on record as “significant inhibiting activity”. Besides, in the assay on NMDA-activated currents, the “% Inhibition Peak Current” value is listed as 76.7%, the “% Inhibition Steady State Current” value was found to be 70.4% and the “blocking activity on NMDA-activated currents (in words)” value (“blocking activity” for short) is listed as “significant blocking activity”. In the assay with MPTP-treated mice, the LOCOMOTION was determined as 16%, the REARING is given as 25% and the “TOTAL ACTIVITY” value was 45%.
On to `COc1ccc2[nH]cc(CCNc3ccccc3[N+](=O)[O-])c2c1` [N-(2-Nitrophenyl)-5-methoxytryptamine], for which, at GSK3β, half-maximal inhibition (IC50) required 14.1 µM and the “inhibiting activity” value is “significant inhibiting activity”. Besides, in the assay on NMDA-activated currents, the “% Inhibition Peak Current” value amounted to 78%, the “% Inhibition Steady State Current” value amounted to 77.3% and the “blocking activity” value is given as “significant blocking activity”. In the assay with MPTP-treated mice, the “reversal” value is listed as “significantly reversed the motor deficits”, the LOCOMOTION was determined as 44%, the REARING came out at 90% and the “TOTAL ACTIVITY” value turned out to be 73%.
In the case of `O=[N+]([O-])c1ccccc1NCCc1c[nH]c2ccccc12` [N-(2-Nitrophenyl)-tryptamine], on GSK3β, half-maximal inhibition (IC50) required 9.9 µM and the “inhibiting activity” value was “significant inhibiting activity”. Moreover, in the assay on NMDA-activated currents, the “% Inhibition Peak Current” value was determined as 90.93%, the “% Inhibition Steady State Current” value came out at 66.83% and the “blocking activity” value is reported as “significant blocking activity”. Also, in the assay with MPTP-treated mice, the “reversal” value was “significantly reversed the motor deficits”, the LOCOMOTION worked out at 53%, the REARING was 100% and the “TOTAL ACTIVITY” value is listed as 90%.
For `COc1ccc2[nH]cc(CCNc3ccc([N+](=O)[O-])cc3Br)c2c1` [N-(2-bromo-4-nitrophenyl)-5-methoxytryptamine], in the assay with NMDA-activated currents, the “% Inhibition Peak Current” value is 91.53% and the “% Inhibition Steady State Current” value is recorded as 86.57%.
In the same order, the values of `COc1ccc2[nH]cc(CCNc3ccc([N+](=O)[O-])cc3C#N)c2c1` [N-(2-cyano-4-nitrophenyl)-5-methoxytryptamine] are 96.21% and 88.21%.
`O=[N+]([O-])c1cc(Br)ccc1NCCc1c[nH]c2ccccc12` [N-(2-nitro-4-bromophenyl)-tryptamine]: in the assay with NMDA-activated currents, the “% Inhibition Peak Current” value is 95.8%, the “% Inhibition Steady State Current” value came out at 83% and the “blocking activity” value was “significant blocking activity”.
With `O=C(O)c1ccc(NCCc2c[nH]c3ccccc23)c([N+](=O)[O-])c1` [N-(4-Carboxy-2-nitrophenyl)-tryptamine], in the assay with NMDA-activated currents, the “% Inhibition Peak Current” value was 101.6% and the “% Inhibition Steady State Current” value came to 92.84%.
Take `COc1ccc2[nH]cc(CCNc3ccc(Br)cc3[N+](=O)[O-])c2c1` [N-(4-bromo-2-nitrophenyl)-5-methoxytryptamine]: in the assay on NMDA-activated currents, the “% Inhibition Peak Current” value worked out at 104.2%, the “% Inhibition Steady State Current” value was determined as 78.18% and the “blocking activity” value is on record as “significant blocking activity”. In the assay on MPTP-treated mice, the LOCOMOTION is 16%, the REARING turned out to be 24% and the “TOTAL ACTIVITY” value is reported as 46%.
In the case of `COc1ccc2[nH]cc(CCNc3ccc(S(C)(=O)=O)cc3[N+](=O)[O-])c2c1` [N-(4-methylsulfonyl-2-nitrophenyl)-5-methoxytryptamine], in the assay with MPTP-treated mice, the “reversal” value is listed as “significantly reversed the motor deficits”, the LOCOMOTION is 41%, the REARING came out at 74% and the “TOTAL ACTIVITY” value came out at 70%.
